These are literature values, as cited in PMC7473964, “Application of Pharmacokinetic-Pharmacodynamic Modeling to Inform Translation of In Vitro NaV1.7 Inhibition to In Vivo Pharmacological Response in Non-human Primate” (Pharmaceutical Research, 2020).

This series has as its system sense of smell (hyposmia) as biomarker of on-target NaV1.7 pharmacology. Also noted: method as in PMID 31172446. The conditions noted are these: healthy volunteers, first-in-human study.

As for `O=C(NS(=O)(=O)N1CCC1)c1cc(C2CC2)c(OCC23CC4CC(CC(C4)C2)C3)cc1F` [GDC-0276], the “Hyposmia in clinical study” value is given as “a couple of incidents of hyposmia were reported”.
